Values joined by “and” are separate entries in the source; they are usually repeats but may differ in a detail not shown here. Equal entries are not always repeated. Where two headings read alike, the source gives them in different places.
How the values were obtained:
[1] = biological target: T1, Ventr (exo-) polymerase (Thermococcus litoralis, UniProt P30317, D141A/DEL1082-1471/DEL495-1032/E143A); type: biochemical; details: for Amplification yield (% of C+): Ventr (exo-), 0.5 mM MnCl2
T1 construct: purchased New England Biolabs
T1 sequence (P30317 other isoform, or with tags, fused parts or gaps D141A/E143A/DEL495-1032/DEL1082-1471): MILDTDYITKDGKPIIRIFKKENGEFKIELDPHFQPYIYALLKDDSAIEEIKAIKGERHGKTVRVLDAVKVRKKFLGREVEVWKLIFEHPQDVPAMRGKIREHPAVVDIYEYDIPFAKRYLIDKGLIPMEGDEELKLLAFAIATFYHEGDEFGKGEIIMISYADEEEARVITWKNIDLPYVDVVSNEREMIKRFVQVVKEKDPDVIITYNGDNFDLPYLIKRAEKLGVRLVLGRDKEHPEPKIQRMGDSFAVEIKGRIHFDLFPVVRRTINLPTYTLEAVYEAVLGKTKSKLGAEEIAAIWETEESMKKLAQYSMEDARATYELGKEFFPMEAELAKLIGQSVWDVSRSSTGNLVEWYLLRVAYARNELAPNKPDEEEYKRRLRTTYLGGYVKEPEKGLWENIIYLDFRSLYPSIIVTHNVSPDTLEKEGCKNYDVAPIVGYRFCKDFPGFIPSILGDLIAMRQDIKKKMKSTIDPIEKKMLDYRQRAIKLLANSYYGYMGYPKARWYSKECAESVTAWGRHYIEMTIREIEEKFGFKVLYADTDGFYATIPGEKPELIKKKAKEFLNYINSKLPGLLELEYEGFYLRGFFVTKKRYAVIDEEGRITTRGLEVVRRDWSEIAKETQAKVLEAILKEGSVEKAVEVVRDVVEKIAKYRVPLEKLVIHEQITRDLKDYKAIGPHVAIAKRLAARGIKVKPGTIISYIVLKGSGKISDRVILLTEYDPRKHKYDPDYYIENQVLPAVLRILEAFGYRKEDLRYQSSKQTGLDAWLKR
Procedure: (§1) Control PCR condition: 2 units of Vent exo^−DNA polymerase were used in a 50 μL reaction volume containing 200 μM of each dNTPs, 10mM KCl, 10mM (NH4)2SO4, […] pH 8.8, 2mM MgSO4, 0.1% Triton™ X-100, 0.2 μM of each primers and 10ng of plasmid DNA. PCR were performed in a GeneAmp PCR system 9700 (Perkin-Elmer) as follows: 5 min at 95° C. (first denaturation), followed by 30 cycles of polymerisation [30 s at 95° C. (denaturation), 30 s at 65° C. (annealing) , 2 min at 72° C. (polymerisation)].
(§2) When a modified dNTPs ratio was used, fmal concentrations were 200 μM for dATP and dTTP and 800 μM for dCTP and dGTP.
Enzymatic activity of DNA polymerases has been determined by ethidium bromide staining of 1% agarose gel. Band intensity of 2 μL aliquots of amplicon issued from mutagenic PCR were compared to the intensity of bands obtained from several dilutions of standard PCR.
In order to assess the impact of the chemical stress induced by alcohols and urea on PCR, we measured the amplification yield was measured and compared it to that of a standard PCR. The size of a library generated by error-prone PCR is proportional to the amplification yield, therefore it is of a paramount importance to maintain the amplification yield as high as possible. Concentration of alcohol leading to a reduction in amplification yield was detected were chosen to determine their impact on amplified sequences. Such concentrations were defined as “critical” concentration of alcohol.

[2] = biological target: Taq polymerase (Thermus aquaticus, UniProt P19821); type: biochemical
Taq polymerase, sequence (P19821 whole entry): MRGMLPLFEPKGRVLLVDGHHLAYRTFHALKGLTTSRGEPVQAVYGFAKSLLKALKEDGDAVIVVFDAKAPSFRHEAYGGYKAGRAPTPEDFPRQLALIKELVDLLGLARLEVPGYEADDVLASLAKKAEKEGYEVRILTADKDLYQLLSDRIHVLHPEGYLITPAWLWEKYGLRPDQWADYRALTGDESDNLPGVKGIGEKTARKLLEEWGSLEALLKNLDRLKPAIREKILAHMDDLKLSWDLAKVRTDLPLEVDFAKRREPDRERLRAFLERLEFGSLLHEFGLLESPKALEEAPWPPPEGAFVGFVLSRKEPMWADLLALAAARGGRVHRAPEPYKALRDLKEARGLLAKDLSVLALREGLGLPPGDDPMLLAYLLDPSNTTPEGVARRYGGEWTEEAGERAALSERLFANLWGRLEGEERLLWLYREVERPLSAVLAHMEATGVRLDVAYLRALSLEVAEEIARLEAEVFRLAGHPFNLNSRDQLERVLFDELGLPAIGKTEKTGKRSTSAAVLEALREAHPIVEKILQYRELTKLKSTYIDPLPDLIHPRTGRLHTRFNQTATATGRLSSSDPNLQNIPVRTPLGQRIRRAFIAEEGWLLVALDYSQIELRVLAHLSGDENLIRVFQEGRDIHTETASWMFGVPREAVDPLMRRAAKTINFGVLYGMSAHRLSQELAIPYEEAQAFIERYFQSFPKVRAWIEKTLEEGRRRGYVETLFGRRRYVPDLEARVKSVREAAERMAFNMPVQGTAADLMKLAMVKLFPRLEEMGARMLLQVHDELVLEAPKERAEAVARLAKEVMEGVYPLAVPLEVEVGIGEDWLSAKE

[3] = biological target: Deep Ventr (exo-) polymerase (Pyrococcus sp., UniProt Q51334, D141A/DEL493-1029/E143A); type: biochemical, Pyrococcus species GB-D
Deep Ventr (exo-) polymerase, sequence (Q51334 other isoform, or with tags, fused parts or gaps D141A/E143A/DEL493-1029): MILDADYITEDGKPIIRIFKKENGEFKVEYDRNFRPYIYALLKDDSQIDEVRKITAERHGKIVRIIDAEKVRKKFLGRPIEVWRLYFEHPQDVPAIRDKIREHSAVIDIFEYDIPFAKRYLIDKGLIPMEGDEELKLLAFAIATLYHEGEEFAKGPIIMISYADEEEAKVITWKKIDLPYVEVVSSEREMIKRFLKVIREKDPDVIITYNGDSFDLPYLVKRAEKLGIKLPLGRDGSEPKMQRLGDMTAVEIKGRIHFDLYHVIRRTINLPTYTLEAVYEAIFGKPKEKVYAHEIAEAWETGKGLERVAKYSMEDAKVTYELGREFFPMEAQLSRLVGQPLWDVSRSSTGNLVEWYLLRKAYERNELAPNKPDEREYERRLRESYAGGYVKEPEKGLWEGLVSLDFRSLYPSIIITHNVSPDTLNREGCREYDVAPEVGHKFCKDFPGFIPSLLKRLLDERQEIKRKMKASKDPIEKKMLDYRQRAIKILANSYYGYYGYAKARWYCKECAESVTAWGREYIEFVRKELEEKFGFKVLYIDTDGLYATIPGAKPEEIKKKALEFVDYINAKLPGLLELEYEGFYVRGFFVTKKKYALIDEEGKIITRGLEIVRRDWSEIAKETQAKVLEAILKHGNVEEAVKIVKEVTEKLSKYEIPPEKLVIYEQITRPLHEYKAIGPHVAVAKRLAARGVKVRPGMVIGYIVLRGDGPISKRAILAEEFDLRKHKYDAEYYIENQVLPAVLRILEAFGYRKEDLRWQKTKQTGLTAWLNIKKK

[4] = biological target: T2, Ventr (exo-) DNA polymerase (Thermococcus litoralis, UniProt P30317, D141A/DEL1082-1471/DEL495-1032/E143A); type: biochemical
T2 construct: purchased New England Biolabs
T2 sequence (P30317 other isoform, or with tags, fused parts or gaps D141A/E143A/DEL495-1032/DEL1082-1471): as the sequence (P30317 other isoform, or with tags, fused parts or gaps D141A/E143A/DEL495-1032/DEL1082-1471) above
Procedure: The template used for PCR is the gene coding for MB-1 His (384 bp) (Grundy J. et al., (1998) Journal of Biotechnology, 63:9-15) cloned in the 6.6kb pMAL-c2 vector (New England Biolabs, cat no. M0257S). The template was obtained by plasmid purification of E. coli with XL-1 Blue (Stratagene) Miniprep protocol (Qiagen) and quantified using UV spectrometry.
as §1, §2
pMAL-c2 vector (New England Biolabs) was digested with SacI and HindIII endonucleases (New England Biolabs) and gel purified (1% agarose) using Qiaex gel extraction kit (Qiagen) and Agarose A from LAB MAT. The 384 bp PCR products were also gel purified. […] The purified products were then concatenated in a kination/ligation using T4 Polynucleotide kinase and T4 DNA ligase (New England Biolabs) for 3 hours at room temperature followed by a restriction digestion using SacI and HindIII endonucleases for 5 hours at 37° C. Then, the digested PCR products were purified using PCR purification kit (Qiagen) and ligated with pMAL-c2 vector using T4 DNA ligase at 16° C. overnight.
5 μL of ligation product mixed with 50 μL of E. coli XL-1 Blue hypercompetent cells were incubated on ice for 30 min, heatshocked at 42° C. for 45 sec and re-incubated on ice for 2 min. Then, 1mL of SOC medium was added and the mixture was incubated for 1 hour at 37° C. with shaking. Transformed Cells were then selected on LB agar plates containing 100 μg/mL ampicillin.
Plasmids from transformant colonies were purified with Qiaprep Spin miniprep kit (Qiagen) and digested with SacI/HindIII to confirm the presence of the 384 bp fragment corresponding to MB-1 His gene. Plasmids were then sequenced by the dye-terminator method (Service d'analyse et de synthèse, Université Laval). Complete sequences were analysed with LFASTA software (Chao K. M. (1998), Comput. Appl. Biosci., 8:481-487), allowing for comparison of control and mutated DNA. Mutation rate and mutation types were calculated from such a comparison.

[5] = biological target: T3, Taq DNA polymerase (Thermus aquaticus, UniProt P19821); type: biochemical
T3 sequence (P19821 whole entry): as the sequence (P19821 whole entry) above

[6] = biological target: T2, Ventr (exo-) DNA polymerase; assay: PCR measuring maximal length of amplification; type: biochemical
Procedure: (§3) 100ng of genomic DNA from Actinobacillus pleuropneumoniae was used as template. PCR cycles were as follows: 7 min at 95° C., then 30 cycles of polymerisation [45 s at 95° C., 45 s at 53° C., 1 min at 72°^C].

[7] = biological target: T3, Taq DNA polymerase; details: 0.5 mM MnCl2, Equimolar dNTPs
Procedure: as §3

[8] = Ventr (exo-) polymerase, concentration leading to reduction in amplification yield
[9] = concentration leading to reduction in amplification yield
[10] = Taq polymerase, concentration leading to reduction in amplification yield
[11] = Taq, 0.5 mM MnCl2, Equimolar dNTPs
[12] = Ventr (exo-), 0.5 mM MnCl2, AG/CT = 1/4
[13] = Ventr (exo-), 0.5 mM MnCl2, AG/CT = 1/4, % of total mutations
[14] = Ventr (exo-), 0.5 mM MnCl2, AT/GC = 1/4
[15] = Ventr (exo-), 0.5 mM MnCl2, AT/GC = 1/4, % of total mutations
[16] = Ventr (exo-), 0.5 mM MnCl2, Equimolar dNTPs
[17] = Ventr (exo-), 0.5 mM MnCl2, Equimolar dNTPs, % of total mutations
[18] = Ventr (exo-), 0.5 mM MnCl2, Equimolar dNTPs, listed as manganese
[19] = Taq, 0.5 mM MnCl2, Equimolar dNTPs, % of total mutations

For `CC(C)O` [Isopropanol], which Critical concentration [1, 8] is on record?
Its Critical concentration is 10.0 % v/v.

Which “Amplification yield (% of C+)” value [2] does the source give for `CCCO` [Propanol, 1-propanol] here?
Its value is 50 % of C+.

What about the Critical concentration [2] of the same molecule?
Its Critical concentration is 2.5 % v/v.

What about the polymerisation activity [2] of the same molecule?
The polymerisation activity was “no polymerisation activity”.

And the Critical concentration [1]?
The Critical concentration was 8.0 % v/v.

And the polymerisation activity [1]?
The polymerisation activity was “no polymerisation activity”.

And the Critical concentration [3, 9]?
Its Critical concentration is 8.0 % v/v.

And the “Bias indicator A, T turns N” value [4]?
The value was 25% and 24% and 14%.

What about the “Bias indicator G, C turns N” value [4] of the same molecule?
The value was 67% and 62% and 86%.

What about the “Bias indicator N turns A, T” value [4] of the same molecule?
The value was 67% and 71%.

What about the “Mutation Frequency” value [4] of the same molecule?
The value was 0.98% and 0.27% and 0.58%.

What about the “mutation of guanines and cytosines, of total mutations” value [4] of the same molecule?
Its value is 67%.

And the “Deletion Frequency” value [5]?
The value was 0.04%.

What about the “Mutation Frequency” value [5] of the same molecule?
The value was 0.13%.

And the mutations found [5]?
Its mutations found is 3.

How did the Critical concentration [2, 10] turn out when `NC(N)=O` [Urea] was run?
Its Critical concentration is 1.2 % v/v.

And the Critical concentration ([2]; Taq polymerase, in molar)?
The Critical concentration was “(0.20 M)”.

And the Critical concentration [1, 8]?
Its Critical concentration is 1.5 % v/v.

What about the Critical concentration ([1]; Ventr (exo-) polymerase, in molar) of the same molecule?
The Critical concentration was “(0.25 M)”.

What about the Critical concentration [3, 9] of the same molecule?
Its Critical concentration is 1.5 % v/v.

And the Critical concentration ([3]; in molar)?
The Critical concentration was “(0.25 M)”.

What about the “mutation detected in PCR” value ([4]; Ventr (exo-), critical concentration of urea, more than 2000 nucleotides sequenced) of the same molecule?
The value was “did not detect mutation”.

And the “mutation detected in PCR” value ([5]; Taq, critical concentration of urea, more than 2000 nucleotides sequenced)?
The value was “did not detect mutation”.

Which Critical concentration [2, 10] does the source give for Butanol here?
The Critical concentration was 1.0 % v/v.

And the Critical concentration [1, 8]?
Its Critical concentration is 4.0 % v/v.

What about the Critical concentration [3, 9] of the same molecule?
The Critical concentration was 6.0 % v/v.

manganese chloride [MnCl2] was tested. Which “Amplification yield (% of C+)” value [2, 11] did it give?
Its value is 75 % of C+.

And the “Amplification yield (% of C+)” value ([1]; AG/CT = 1/4)?
The value was 75 % of C+.

And the “Amplification yield (% of C+)” value ([1]; AT/GC = 1/4)?
Its value is 75 % of C+.

And the “Amplification yield (% of C+)” value ([1]; Equimolar dNTPs)?
The value was 75 % of C+.

And the “Deletion Frequency” value [4, 12]?
Its value is 0.03%.

And the “Mutation Frequency” value [4, 12]?
The value was 2.30%.

What about the “Bias indicator A, T turns N” value [4, 13] of the same molecule?
The value was 30%.

And the “Bias indicator G, C turns N” value [4, 13]?
Its value is 67%.

What about the “Bias indicator N turns A, T” value [4, 13] of the same molecule?
The value was 73%.

And the “Deletion Frequency” value [4, 14]?
Its value is 0.00%.

What about the “Mutation Frequency” value [4, 14] of the same molecule?
The value was 0.52%.

What about the “Bias indicator A, T turns N” value [4, 15] of the same molecule?
The value was 88%.

And the “Bias indicator G, C turns N” value [4, 15]?
Its value is 12%.

And the “Bias indicator N turns A, T” value [4, 15]?
The value was 25%.

And the “Deletion Frequency” value [4, 16]?
The value was 0.00%.

And the “Mutation Frequency” value [4, 16]?
The value was 3.70%.

And the “Bias indicator A, T turns N” value [4, 17]?
Its value is 23%.

And the “Bias indicator G, C turns N” value [4, 17]?
The value was 77%.

What about the “Bias indicator N turns A, T” value [4, 17] of the same molecule?
Its value is 83%.

What about the “Deletion Frequency” value [4, 18] of the same molecule?
The value was “without insertion or deletion”.

What about the “Mutation Frequency” value [4, 18] of the same molecule?
The value was 3.7%.

And the “Deletion Frequency” value [5, 11]?
The value was 0.04%.

And the “Mutation Frequency” value [5, 11]?
The value was 8.48%.

And the “Bias indicator A, T turns N” value [5, 19]?
The value was 72%.

What about the “Bias indicator G, C turns N” value [5, 19] of the same molecule?
Its value is 24%.

And the “Bias indicator N turns A, T” value [5, 19]?
The value was 43%.

What about the “Maximal lenght of amplification” value ([6]; 0.5 mM MnCl2, AG/CT = 1/4) of the same molecule?
Its value is 0.8 kb.

And the “Maximal lenght of amplification” value ([6]; 0.5 mM MnCl2, AT/GC = 1/4)?
Its value is 1.6 kb.

And the “Maximal lenght of amplification” value ([6]; 0.5 mM MnCl2, Equimolar dNTPs)?
Its value is 0.8 kb.

What about the “Maximal lenght of amplification” value [7] of the same molecule?
The value was 0.4 kb.

From patent US20050153303A1, “Method of mutagenic chain reaction” (priority 2003, published 2005)
